Test results as given in patent US20260209305A1, “THERAPEUTIC EXPLOITATION OF STING CHANNEL ACTIVITY” (The Broad Institute Inc., priority 2022, published 2026).
One block for each molecule: values may come before it.

What was measured:
[1] = biological target: T1, STING (Homo sapiens, UniProt Q86WV6); test: STING-induced autophagy: LC3 lipidation, RFP-LC3 imaging in FIP200 KO 293T cells and western blot in BJ1 cells; format: cell-based; design: expressed in transfected cells; host or cells: FIP200 KO 293T cells, lentiviral transduction; settings: 1 hour; for LC3 lipidation upon agonist treatment: 20 ug/ml cGAMP, 40 μM MSA2 or 1 μM diABZI
T1 sequence (Q86WV6 whole entry, the tested form may be a part): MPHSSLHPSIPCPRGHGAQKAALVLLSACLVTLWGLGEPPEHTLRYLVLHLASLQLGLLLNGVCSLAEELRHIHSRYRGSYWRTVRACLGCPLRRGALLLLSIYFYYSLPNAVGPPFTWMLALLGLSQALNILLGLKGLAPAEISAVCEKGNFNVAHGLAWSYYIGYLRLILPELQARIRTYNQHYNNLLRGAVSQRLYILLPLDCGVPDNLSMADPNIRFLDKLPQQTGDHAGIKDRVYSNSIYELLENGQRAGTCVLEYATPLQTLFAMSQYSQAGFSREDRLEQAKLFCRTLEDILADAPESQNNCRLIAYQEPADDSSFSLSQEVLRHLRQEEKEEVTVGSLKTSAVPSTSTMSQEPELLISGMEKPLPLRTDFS

[2] = test system: STING; test: p-STING and LC3B lipidation immunoblot in 293T cells expressing WT STING, STING AQQA or TMEM192-STING-LBD; format: cell-based, human; settings: 293T cells expressing the STING construct
Procedure: Genes that are essential for mediating STING-induced autophagy were systematically identify, with a special interest in identifying potential transporters responsible for ion leakage. […] A genome-wide CRISPR fluorescence-activated cell sorting (FACS) screen was carried out using HEK293T cells expressing RFP-LC3 and STING-HA with FIP200 knocked out in order to reduce background signal from basal autophagy. Following transduction with the sgRNA library, cells were stimulated with diABZI to induce STING activation and STING-HA+ cells were sorted into LC3− and LC3+ bins (FIG. 1A) to specifically identify genes that altered CASM activation without affecting STING activation. […] The STING itself may have mediated Golgi/endosomes proton leakage critical for subsequent assembly of V-ATPase and recruitment of ATG16L1 to initiate CASM (Xu et al. 2019). In order to assess this, whether the STING ligand-binding domain (LBD), which has been proposed to recruit LC3 through its LR motifs (Gui et al. 2019; Liu et al. 2019), could induce autophagy upon translocation to Golgi/endosomes was first tested. Autophagy induction was tested in 293T cells by WT STING, a STING oligomerization-deficient mutant (A277Q/Q273A STING, termed AQQA), and an endolysosome-localized STING fusion protein (the endolysosomal protein TMEM192 fused with the STING LBD) upon agonist stimulation. […]

[3] = test system: NLRP3 inflammasome; test: Inflammasome activation and IL-1ß release in primary human monocytes; format: cell-based
[4] = biological target: T1, STING; test: Organelle pH measurement (Lysosensor) after STING activation in BJ1 cells; format: cell-based; settings: human fibroblasts (BJ1), 1 μM diABZI, 1 hr
Procedure: Organelle pH Measurements and Image Acquisition: hTERT-immortalized BJ1 cells (ATCC CRL-2522) were plated in 24-well glass-bottom plates (Greiner Bio-One). After 24 hours, cells were stained for 30 minutes at 37° C. with 5 μM Lysosensor (Thermo Fisher Scientific cat #L7535), […] Hoechst (Thermo Fisher Scientific, cat. #62249), and 1 μM Bodipy TR Ceramide (Thermo Fisher Scientific cat #B34400) for Golgi labeling or 100 nM Lysotracker Deep Red (Thermo Fisher Scientific cat #L12492) for endolysosome labeling in Phenol-free DMEM medium with 10% FBS and 1% Pen-Strep. Cells were then washed five times with Phenol-free DMEM medium and stimulated with 1 μM DIABZI for 1 hr with or without the addition of 10 μM C53. […] An LED light engine (Lumencor CELESTA Light Engine) was used for fluorescence illumination and all hardware was controlled using NIS elements software. […]
Given the necessity of both the STING transmembrane domain and its translocation for autophagy induction, it was investigated whether the entire STING protein could cause ion leakage by either inducing membrane damage resulting in a secondary ion imbalance or by directly acting as an ion channel. […] The possibility that STING directly behaves as a channel for proton release into the cytosol upon translocation to the Golgi was assessed, the Golgi being an acidic compartment (Linders et al. 2022). […]

[5] = test system: NLRP3; test: NLRP3-mNeongreen reporter: NLRP3 puncta in 293T cells expressing STING-HA; format: cell-based, human; settings: 1 μM diABZI, 1 hour
[6] = test system: STING; test: RFP-LC3 induction and pSTING by FACS in HEK293T cells expressing STING WT or H50R; format: cell-based, human; settings: mutant vs WT STING, FIP200 KO 293T cells, agonist stimulation
Procedure: FACS based genome-wide CRISPR screen and mutagenesis screen: FIP200 KO 293T cells were generated by transfecting 293T cells with pXPR_023 (Addgene #52961), encoding Cas9 and an sgRNA against FIP200 and selecting cells with 2 μg/ml puromycin (Thermo Fisher Scientific #A1113803) for two days. FIP200 KO 293T cells were then transduced with pTRIP-PGK-Hygro-P2A-RFP-LC3, treated with 33 μg/ml hygromycin (Invivogen, #ant-hg-1) for 3 days, and then sorted to get a homogenous RFP+ population.
Mutagenesis screen: RFP-LC3 FIP200 KO 293T cells were infected with saturated mutagenesis library lentivirus at MOI=0.2, and selected with 20 μg/ml blasticidin for 2 days. 150M transduced cells were treated with diABZI for 1.5 hr, and then permeabilized with 1× perm buffer (PBS with 0.05% saponin and 0.1% glycine) for 4 min. Permed cells are then washed with 1×PBS, and fix, perm, and stained using BD Cytofix/Cytoperm kit and anti-pSTING Alexa647 (CST, #43499) at 1:100 dilution.
A sorting strategy similar to the genome-wide CRISPR screen was followed, sorting populations of LC3− and LC3+ HEK293T cells within the pSTING+ cell population (FIG. 3E), thus ensuring that the sorted cell mutants enabled expression of functional STING able to translocate to Golgi/endosomes where phosphorylation of STING occurs (Dobbs et al. 2015). […]
Target sequence in this assay (Q86WV6 153-340 limits assumed): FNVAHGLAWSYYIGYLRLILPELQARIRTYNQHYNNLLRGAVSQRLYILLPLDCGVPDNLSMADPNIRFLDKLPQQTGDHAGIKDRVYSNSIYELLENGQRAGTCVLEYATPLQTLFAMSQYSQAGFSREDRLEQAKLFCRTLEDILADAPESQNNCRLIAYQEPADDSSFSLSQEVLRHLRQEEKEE

Molecule: COc1cc2cc(C(=O)CCC(=O)O)sc2cc1OC [MSA2]
LC3 lipidation upon agonist treatment [1]: LC3 lipidation was induced

Molecule: CO[C@@H]1C[C@@H](C[C@H]2CC[C@H](C)[C@H]([C@@H](C)C(=O)O)O2)O[C@]2(O[C@](C)([C@H]3CC[C@@](C)([C@@H]4O[C@@H]([C@H]5O[C@@](O)(CO)[C@H](C)C[C@@H]5C)C[C@@H]4C)O3)C[C@H]2C)[C@@H]1C [Nigericin]
LC3 lipidation by independent ionophore stimulus ([1]; BJ1 cells, 2 μM Nigericin): induction of LC3 lipidation

Molecule: AQQA: STING oligomerization-deficient mutant (A277Q/Q273A STING)
autophagy induction (LC3B lipidation) upon agonist stimulation [2]: impaired LC3B lipidation

Molecule: cyclic GMP-AMP [cGAMP]
IL-1ß release upon STING agonist stimulation [3]: induced

fluorescence within the endolysosomal compartment [4]: only modestly altered
pH within the Golgi apparatus (decreased fluorescence of Lysosensor Green dye) [4]: significant increase in pH
LC3 lipidation upon agonist treatment [1]: LC3 lipidation was induced
Molecule: CCn1nc(C)cc1C(=O)Nc1nc2cc(C(N)=O)cc(OC)c2n1C/C=C/Cn1c(NC(=O)c2cc(C)nn2CC)nc2cc(C(N)=O)cc(OCCCN3CCOCC3)c21 [diABZI]
NLRP3 translocation upon stimulation [5]: NLRP3 translocated from the cytoplasm to perinuclear vesicles
IL-1ß release upon STING agonist stimulation [3]: induced

Molecule: STING H50R: human STING polypeptide with H50R substitution in TM2, inside the pore area
LC3 induction within pSTING+ cells (STING-induced autophagy) [6]: reduced
LC3 induction within pSTING+ cells (STING-induced autophagy) ([6]; listed as H50R): strongly inhibit
